Experiment [1] deals with Pseudomonas aeruginosa (P. aeruginosa) 27853. As to the kind of experiment: Antibacterial activity, MIC (Table 5). The experiment is classed as cell-based. Particulars: P. aeruginosa 27853, read-out: MIC, 27853. In outline:
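Compounds are serially diluted in broth and inoculated with the organism. Growth is then inspected macroscopically, and the lowest concentration showing none is taken as the MIC (μg/mL).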

For experiment [2], the system named is Neisseria meningitidis (N. meningitidis) 13090. Description: Antibacterial activity, MIC (Table 8). It is filed as cell-based. The essentials: (§1)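 Broth microdilution MIC, read as the lowest drug concentration preventing macroscopically visible growth under test conditions and reported in μg/mL.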
Experiment [3] has as its system Moraxella catarrhalis (M. catarrhalis) 25238. As to the kind of experiment: Antibacterial activity, MIC (Table 7). It is filed as cell-based. The text has this: The antibacterial activity from a microbroth dilution method may be presented as the minimum inhibitory concentration (MIC in μg/mL). The MIC value is the lowest concentration of drug which prevents macroscopically visible growth under test conditions.
Antibacterial activity of test compounds against the Gram-negative bacteria Haemophilus influenzae (H. influenzae) 49247 is shown in Table 6, Moraxella catarrhalis (M. catarrhalis) 25238 is shown in Table 7 and Neisseria meningitidis (N. meningitidis) 13090 is shown in Table 8.

A further experiment relates to K. pneumoniae MXX1232. Description: Antibacterial activity, MIC, resistant strain (Table 4). It is filed as cell-based. The conditions noted are these: Klebsiella pneumoniae, MXX1232; resistant K. pneumoniae MMX1232, multi-drug resistant clinical isolate; read-out: MIC, MMX1232. The essentials: (§2)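 Values are minimum inhibitory concentrations in μg/mL from broth microdilution, meaning no macroscopically visible growth at that concentration. Resistant MXX isolates are multi-drug resistant clinical strains.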

The next experiment concerns A. baumannii MXX2240. The description is as above. It is filed as cell-based. Particulars: Acinetobacter baumannii, MXX2240; resistant A. baumannii MMX2240, multi-drug resistant clinical isolate; read-out: MIC, MMX2240. In outline: as §2
Experiment [4] concerns Haemophilus influenzae (H. influenzae) 49247. As to the kind of experiment: Antibacterial activity, MIC (Table 6). The experiment is classed as cell-based. The essentials: as §1
In the next experiment the test system is E. coli ELZ4251. As to the kind of experiment: Antibacterial activity, MIC, multi-drug resistant clinical isolate (Table 3). It is filed as cell-based. The conditions noted are these: Escherichia coli. The essentials:
(§3)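 Microbroth dilution. Endpoint: absence of macroscopically visible growth. Value = MIC, μg/mL.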

A further experiment concerns E. coli ELZ4000. Described as above. The experiment is classed as cell-based. Particulars: Escherichia coli, ELZ4000, read-out: MIC ELZ4000. In outline:
as §3

Experiment [5] relates to Acinetobacter baumannii (A. baumannii) BAA747. As to the kind of experiment: Antibacterial activity, MIC (Table 4). It is filed as cell-based. The conditions noted are these: A. baumannii BAA747, read-out: MIC, BAA747. The essentials: as §2
The test system of experiment [6] is Klebsiella pneumoniae (K. pneumoniae) 35657. As to the kind of experiment: Antibacterial activity, MIC (Table 4). It is filed as cell-based. Particulars: K. pneumoniae 35657, read-out: MIC, 35657. The essentials:
as §2

Experiment [7] concerns Staphylococcus aureus (S. aureus) 29213. Description: Antibacterial activity, microbroth dilution MIC (Table 1). It is filed as cell-based. The conditions noted are these: microbroth dilution, Gram-positive S. aureus 29213, read-out: MIC, 29213. The essentials:
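Lowest concentration stopping macroscopically visible growth under test conditions, by broth microdilution, defines the MIC (μg/mL).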

Experiment [8] relates to Escherichia coli (E. coli) BAS849. Described as above. The experiment is classed as cell-based. The conditions noted are these: microbroth dilution, super sensitive Gram-negative E. coli BAS849, read-out: MIC, BAS849. The essentials: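 In a microbroth dilution test, the minimum inhibitory concentration was defined as the lowest compound level preventing growth seen by eye, and was given in μg/mL.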

The test system of another experiment is E. coli LZ3111. Description: Antibacterial activity, MIC, quinolone resistant strain (Table 2). It is filed as cell-based. Particulars: Escherichia coli, LZ3111, read-out: MIC LZ3111. The essentials:
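Strain carries mutations conferring high-level quinolone resistance; tested by microbroth dilution, MIC recorded in μg/mL as lowest concentration preventing visible growth.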

Another experiment relates to E. coli 25922. Description: Antibacterial activity, microbroth dilution MIC (Table 1). The experiment is classed as cell-based, Escherichia coli. The conditions noted are these: Escherichia coli; microbroth dilution; control Gram-negative E. coli 25922 strain; read-out: MIC, 25922. In outline:
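Values are MICs (μg/mL): the smallest drug amount at which macroscopically visible bacterial growth is absent under assay conditions, from a microdilution method in broth.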

The text below walks through data of patent US9409905B2, “Antibacterial compounds and methods for use” (PTC THERAPEUTICS, INC., priority 2011, dated 2016).

Values after ≈ are worked out from the molar mass of the structure shown. Where only a bound is given, the exact number is not on record here.

Regarding `CCc1c(-c2ccc3c(cnn3C)c2)[nH]c(=O)c(C(=O)O)c1O` [Cpd 42, 5-ethyl-4-hydroxy-6-(1-methyl-1H-indazol-5-yl)-2-oxo-1,2-dihydropyridine-3-carboxylic acid], the MIC in [1] is 12.5 to 150 mg/L (≈ 39.9 to 479 µM); in experiment [2] it was < 1 mg/L; in experiment [3], < 1 mg/L; in the experiment on K. pneumoniae MXX1232, 12.5 to 150 mg/L (≈ 39.9 to 479 µM); in the experiment on A. baumannii MXX2240 it was 3.5 to 12.5 mg/L (≈ 11.2 to 39.9 µM); in [4], < 1 mg/L. Besides, the MIC in the experiment on E. coli ELZ4251 was 3.5 to 12.5 mg/L (≈ 11.2 to 39.9 µM); in the experiment with E. coli ELZ4000, 3.5 to 12.5 mg/L (≈ 11.2 to 39.9 µM); in experiment [5], 1 to 3.5 mg/L (≈ 3.19 to 11.2 µM); in experiment [6] it was 3.5 to 12.5 mg/L (≈ 11.2 to 39.9 µM); in [7] it was 12.5 to 150 mg/L (≈ 39.9 to 479 µM); in [8], < 1 mg/L. Moreover, the figures for the MIC in the experiment on E. coli LZ3111 and in the experiment with E. coli 25922 were 1 to 3.5 mg/L (≈ 3.19 to 11.2 µM) and 3.5 to 12.5 mg/L (≈ 11.2 to 39.9 µM), respectively.
As for `CCNCc1cc2cc(-c3[nH]c(=O)c(C(=O)O)c(O)c3CC)ccc2n1C` [Cpd 165, 5-ethyl-6-(2-((ethylamino)methyl)-1-methyl-1H-indol-5-yl)-4-hydroxy-2-oxo-1,2-dihydropyridine-3-carboxylic acid], the MIC in experiment [1] was 3.5 to 12.5 mg/L (≈ 9.47 to 33.8 µM); in [2] it was < 1 mg/L; in experiment [3] it was < 1 mg/L; in the experiment on K. pneumoniae MXX1232, 12.5 to 150 mg/L (≈ 33.8 to 406 µM); with A. baumannii MXX2240 it was 3.5 to 12.5 mg/L (≈ 9.47 to 33.8 µM); in [4], < 1 mg/L. The MIC against E. coli ELZ4251 was 1 to 3.5 mg/L (≈ 2.71 to 9.47 µM); in the experiment with E. coli ELZ4000, 3.5 to 12.5 mg/L (≈ 9.47 to 33.8 µM); in experiment [5], < 1 mg/L; in experiment [6], < 1 mg/L; in experiment [7], 3.5 to 12.5 mg/L (≈ 9.47 to 33.8 µM); in [8] it was < 1 mg/L. Further, the MIC was 1 to 3.5 mg/L (≈ 2.71 to 9.47 µM) in the experiment on E. coli LZ3111 and < 1 mg/L in the experiment with E. coli 25922.
As for `CCc1c(-c2ccc3c(c2)cc(CN(C)C)n3C)[nH]c(=O)c(C(=O)O)c1O` [Cpd 166, 6-(2-((dimethylamino)methyl)-1-methyl-1H-indol-5-yl)-5-ethyl-4-hydroxy-2-oxo-1,2-dihydropyridine-3-carboxylic acid], the MIC is 3.5 to 12.5 mg/L (≈ 9.47 to 33.8 µM) in experiment [1]; < 1 mg/L in [2]; < 1 mg/L in experiment [3]; 12.5 to 150 mg/L (≈ 33.8 to 406 µM) in the experiment with K. pneumoniae MXX1232; 1 to 3.5 mg/L (≈ 2.71 to 9.47 µM) in the experiment on A. baumannii MXX2240; < 1 mg/L in experiment [4]. For the same molecule, the MIC with E. coli ELZ4251 was 3.5 to 12.5 mg/L (≈ 9.47 to 33.8 µM); in the experiment on E. coli ELZ4000, 12.5 to 150 mg/L (≈ 33.8 to 406 µM); in experiment [5] it was < 1 mg/L; in experiment [6], < 1 mg/L; in [7], 3.5 to 12.5 mg/L (≈ 9.47 to 33.8 µM); in [8], < 1 mg/L. In addition, the MIC in the experiment on E. coli LZ3111 was 3.5 to 12.5 mg/L (≈ 9.47 to 33.8 µM); in the experiment on E. coli 25922 it was < 1 mg/L.
With `CCc1c(-c2ccc3c(c2)cc(CN(CC)CC)n3C)[nH]c(=O)c(C(=O)O)c1O` [Cpd 167, 6-(2-((diethylamino)methyl)-1-methyl-1H-indol-5-yl)-5-ethyl-4-hydroxy-2-oxo-1,2-dihydropyridine-3-carboxylic acid], the MIC in experiment [1] was 12.5 to 150 mg/L (≈ 31.4 to 377 µM); in [2], < 1 mg/L; in experiment [3] it was < 1 mg/L; in the experiment with K. pneumoniae MXX1232 it was 12.5 to 150 mg/L (≈ 31.4 to 377 µM); in the experiment on A. baumannii MXX2240, 3.5 to 12.5 mg/L (≈ 8.81 to 31.4 µM); in experiment [4] it was < 1 mg/L. Moreover, the MIC is 3.5 to 12.5 mg/L (≈ 8.81 to 31.4 µM) with E. coli ELZ4251; 12.5 to 150 mg/L (≈ 31.4 to 377 µM) in the experiment with E. coli ELZ4000; 1 to 3.5 mg/L (≈ 2.52 to 8.81 µM) in [5]; 1 to 3.5 mg/L (≈ 2.52 to 8.81 µM) in [6]; 12.5 to 150 mg/L (≈ 31.4 to 377 µM) in experiment [7]; < 1 mg/L in experiment [8]. Moreover, the values for the MIC with E. coli LZ3111 and with E. coli 25922 were 3.5 to 12.5 mg/L (≈ 8.81 to 31.4 µM) and < 1 mg/L, respectively.
